Laboratory results: patent US20200237937A1, “COMPOSITIONS AND METHODS FOR ASSESSING […] PATHOLOGY” (Navidea Biopharmaceuticals, Inc., priority 2019, published 2020)
Where two headings read alike, the source gives them in different places.

What was measured:
mannose receptor (CD206) [1] = molecular target: T1, mannose receptor (CD206) (Homo sapiens, UniProt P22897)
Method: (§1) The mass dose of tilmanocept injected into the subjects varied from 125 μg to 400 μg. […] The images shown in FIGS. 1 and 2 were acquired using a Siemens Symbia Intevo camera. Image acquisition times varied between studies from 5-10 minutes.

mannose receptor (CD206) [2] = molecular target: T1, mannose receptor (CD206); settings: for Mean Joint Specific MARTAD: 5 healthy subjects, IV, 10 mCi 99mTc; for Cutoff Value (MARTAD 2 S.D. above the joint specific mean): from 5 healthy subjects
Method: In certain aspects, the pixel intensities of the ROI and RR are used to derive normalized region-specific mannose receptor targeted localization determination (MARTAD) value. The MARTAD value is quantitative index of the amount of imaging agent localization that can be attributable to disease activity in planar images. Defined broadly, the MARTAD value is determined by assessing the ratio of average pixel intensity of the ROI to the average pixel intensity of the RR. In certain alternative embodiments, the MARTAD value is determined by assessing the ratio of maximum pixel intensity of the ROI to the maximum pixel intensity of the RR.
Following MARTAD value determination for a joint or plurality of joints, the MARTAD value can be used to determine macrophage involvement by comparing the MARTAD of the first joint to a normal MARTAD value for a corresponding joint (e.g., RtPIP2 RA vs RtPIP2 healthy). In certain implementations, the normal MARTAD value is determined by aggregating the MARTAD values for each joint from a pool of healthy subjects (e.g., not suffering from RA). In exemplary implementations, the method for defining the joint specific RR in the pool of healthy subjects will be the same as that used for the patient population. Macrophage involvement in a subject is indicated by a joint specific MARTAD value that exceeds the normal MARTAD value by a predetermined threshold. […] In certain alternative implementations, the predetermined threshold subject joint MARTAD value greater above the 95% confidence interval of the average MARTAD value corresponding joint from the plurality of healthy subjects.
as §1
Cutoff values for determination of macrophage involvement in RA inflammation set at MARTAD values greater than 2 S.D. above the joint specific mean.

T1 sequence (P22897 19-1456): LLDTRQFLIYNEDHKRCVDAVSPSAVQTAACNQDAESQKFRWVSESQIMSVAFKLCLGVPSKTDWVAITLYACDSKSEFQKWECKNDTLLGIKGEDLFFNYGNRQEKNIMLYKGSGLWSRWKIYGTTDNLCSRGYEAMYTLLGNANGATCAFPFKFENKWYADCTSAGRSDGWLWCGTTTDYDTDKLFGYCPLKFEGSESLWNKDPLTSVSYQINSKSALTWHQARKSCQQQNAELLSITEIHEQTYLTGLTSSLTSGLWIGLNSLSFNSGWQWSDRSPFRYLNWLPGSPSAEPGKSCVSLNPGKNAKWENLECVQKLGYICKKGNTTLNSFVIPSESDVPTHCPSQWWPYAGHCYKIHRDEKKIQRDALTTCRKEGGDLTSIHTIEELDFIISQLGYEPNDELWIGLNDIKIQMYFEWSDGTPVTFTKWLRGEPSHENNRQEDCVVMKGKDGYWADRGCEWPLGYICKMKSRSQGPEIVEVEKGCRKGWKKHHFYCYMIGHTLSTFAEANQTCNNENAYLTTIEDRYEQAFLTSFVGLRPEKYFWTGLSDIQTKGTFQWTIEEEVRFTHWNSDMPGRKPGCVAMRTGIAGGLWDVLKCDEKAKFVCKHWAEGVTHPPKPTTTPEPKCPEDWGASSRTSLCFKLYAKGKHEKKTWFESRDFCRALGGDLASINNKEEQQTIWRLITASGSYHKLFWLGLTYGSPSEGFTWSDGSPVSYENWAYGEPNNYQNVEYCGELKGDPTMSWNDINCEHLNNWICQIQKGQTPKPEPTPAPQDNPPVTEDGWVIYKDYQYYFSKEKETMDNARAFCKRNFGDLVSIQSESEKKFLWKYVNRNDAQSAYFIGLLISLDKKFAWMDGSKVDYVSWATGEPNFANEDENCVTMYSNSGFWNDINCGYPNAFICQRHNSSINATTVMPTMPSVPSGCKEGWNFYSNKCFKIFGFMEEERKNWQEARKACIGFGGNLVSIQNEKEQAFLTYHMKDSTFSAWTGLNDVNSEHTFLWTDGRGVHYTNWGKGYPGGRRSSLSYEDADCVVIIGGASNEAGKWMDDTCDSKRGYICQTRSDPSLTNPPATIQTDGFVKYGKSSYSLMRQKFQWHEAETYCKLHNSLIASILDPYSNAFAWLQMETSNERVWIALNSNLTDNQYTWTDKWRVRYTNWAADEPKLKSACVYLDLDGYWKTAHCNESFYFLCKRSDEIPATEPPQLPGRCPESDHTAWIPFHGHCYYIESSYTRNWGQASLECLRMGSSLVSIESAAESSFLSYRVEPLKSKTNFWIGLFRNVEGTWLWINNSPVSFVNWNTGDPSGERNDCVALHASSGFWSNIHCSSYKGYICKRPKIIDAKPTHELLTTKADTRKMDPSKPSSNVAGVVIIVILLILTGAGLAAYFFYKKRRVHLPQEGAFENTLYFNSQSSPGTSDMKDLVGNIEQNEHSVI

For “dextran 3-[(2-aminoethyl)thio]propyl 17-carboxy-10,13,16-tris(carboxymethyl)-8-oxo-4-thia-7,10,13,16-tetraazaheptadec-1-yl 3-[[2-[[1-imino-2-(D-mannopyranosylthio)ethyl]amino]ethyl]thio]propyl ether complexes [Tc99m-tilmanocept]”, the “Sensitivity of MARTAD values to image acquisition time” value (mannose receptor (CD206) [1]; image acquisition times 5-10 minutes) was “not sensitive”, the “Effect of mass dose on image quality” value (mannose receptor (CD206) [1]; mass dose of tilmanocept 125 μg to 400 μg IV, separate studies (not shown)) was “did not impact image quality” and the “MARTAD values of repeat images versus first images” value (mannose receptor (CD206) [1]; repeat images 180-240 minutes after injection vs 45-75 minutes, same subjects) was “statistically similar”. For the same substance, the “Mean Joint Specific MARTAD” value (mannose receptor (CD206) [2]; MCP1) was 0.87, the “Cutoff Value (MARTAD 2 S.D. above the joint specific mean)” value (shortened to “Cutoff Value”) (mannose receptor (CD206) [2]; MCP1) was 0.99 and the “Mean Joint Specific MARTAD” value (mannose receptor (CD206) [2]; MCP2) was 0.86. For the same substance, the “Cutoff Value” value (mannose receptor (CD206) [2]; MCP2) was 1.13, the “Mean Joint Specific MARTAD” value (mannose receptor (CD206) [2]; MCP3) was 0.79 and the “Cutoff Value” value (mannose receptor (CD206) [2]; MCP3) was 0.93. For the same substance, the “Mean Joint Specific MARTAD” value (mannose receptor (CD206) [2]; MCP4) was 0.77, the “Cutoff Value” value (mannose receptor (CD206) [2]; MCP4) was 1.00 and the “Mean Joint Specific MARTAD” value (mannose receptor (CD206) [2]; MCP5) was 0.76. For the same substance, the “Cutoff Value” value (mannose receptor (CD206) [2]; MCP5) was 1.08, the “Mean Joint Specific MARTAD” value (mannose receptor (CD206) [2]; PIP1) was 0.98 and the “Cutoff Value” value (mannose receptor (CD206) [2]; PIP1) was 1.21. The “Mean Joint Specific MARTAD” value (mannose receptor (CD206) [2]; PIP2) was 1.05, the “Cutoff Value” value (mannose receptor (CD206) [2]; PIP2) was 1.34 and the “Mean Joint Specific MARTAD” value (mannose receptor (CD206) [2]; PIP3) was 1.03. For the same substance, the “Cutoff Value” value (mannose receptor (CD206) [2]; PIP3) was 1.39, the “Mean Joint Specific MARTAD” value (mannose receptor (CD206) [2]; PIP4) was 0.93 and the “Cutoff Value” value (mannose receptor (CD206) [2]; PIP4) was 1.19. For the same substance, the “Mean Joint Specific MARTAD” value (mannose receptor (CD206) [2]; PIP5) was 0.87, the “Cutoff Value” value (mannose receptor (CD206) [2]; PIP5) was 1.14 and the “Mean Joint Specific MARTAD” value (mannose receptor (CD206) [2]; Wrists, images 45-75 min after injection) was 1.04. The “Cutoff Value” value (mannose receptor (CD206) [2]; Wrists) was 1.24.
